pIC50: −log10 of the molar value.
Target: T1, recombinant human Estrogen Receptor alpha ligand binding domain, residues 307-554 (ER alpha-LBD (GST)) (Homo sapiens, UniProt P03372)
T1 construct: made in house
T1 sequence (P03372 307-554): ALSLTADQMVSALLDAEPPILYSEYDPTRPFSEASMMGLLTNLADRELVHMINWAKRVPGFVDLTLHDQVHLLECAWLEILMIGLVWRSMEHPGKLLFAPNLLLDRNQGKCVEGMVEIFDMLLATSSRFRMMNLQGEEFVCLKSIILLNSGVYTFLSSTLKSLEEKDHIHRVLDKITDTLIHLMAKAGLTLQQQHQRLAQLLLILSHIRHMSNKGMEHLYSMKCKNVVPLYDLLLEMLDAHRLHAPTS
Assay: ERα binding assay (LanthaScreen TR-FRET competition)
Conditions: TR-FRET competition with Fluormone ES2 tracer, 4 hours at room temperature; single experiment or average of two or more

`Cc1ncsc1-c1ccc(CNC(=O)[C@@H]2C[C@@H](O)CN2C(=O)[C@@H](NC(=O)COCCCCOCCOc2cc(F)c([C@@H]3c4[nH]c5ccccc5c4C[C@@H](C)N3CC(C)(C)F)c(F)c2)C(C)(C)C)cc1` [Example 16, (2S,4R)-1-((S)-2-(2-(4-(2-(3,5-Difluoro-4-((1R,3R)-2-(2-fluoro-2-methylpropyl)-3-methyl-2,3,4,9-tetrahydro-1H-pyrido[3,4-b]indol-1-yl)phenoxy)ethoxy)butoxy)acetamido)-3,3-dimethylbutanoyl)-4-hydroxy-N-(4-(4-methylthiazol-5-yl)benzyl)pyrrolidine-2-carboxamide] and `Cc1ncsc1-c1ccc(CNC(=O)[C@@H]2C[C@@H](O)CN2C(=O)[C@@H](NC(=O)COCCCCCOc2cc(F)c([C@@H]3c4[nH]c5ccccc5c4C[C@@H](C)N3CC(C)(C)F)c(F)c2)C(C)(C)C)cc1` [Example 18, (2S,4R)-1-((S)-2-(2-((5-(3,5-Difluoro-4-((1R,3R)-2-(2-fluoro-2-methylpropyl)-3-methyl-2,3,4,9-tetrahydro-1H-pyrido[3,4-b]indol-1-yl)phenoxy)pentyl)oxy)acetamido)-3,3-dimethylbutanoyl)-4-hydroxy-N-(4-(4-methylthiazol-5-yl)benzyl)pyrrolidine-2-carboxamide] are within 0.2 log units of each other in pIC50: 9.10 for the first, 9.22 for the second.

Going from `Cc1ncsc1-c1ccc(CNC(=O)[C@@H]2C[C@@H](O)CN2C(=O)[C@@H](NC(=O)COCCCCCOc2ccc([C@@H]3c4[nH]c5ccccc5c4C[C@@H](C)N3CC(F)F)nc2)C(C)(C)C)cc1` [Example 17, (2S,4R)-1-((S)-2-(2-((5-((6-((1S,3R)-2-(2,2-Difluoroethyl)-3-methyl-2,3,4,9-tetrahydro-1H-pyrido[3,4-b]indol-1-yl)pyridin-3-yl)oxy)pentyl)oxy)acetamido)-3,3-dimethylbutanoyl)-4-hydroxy-N-(4-(4-methylthiazol-5-yl)benzyl)pyrrolidine-2-carboxamide] to `Cc1ncsc1-c1ccc(CNC(=O)[C@@H]2C[C@@H](O)CN2C(=O)[C@@H](NC(=O)COCCCOCCOc2ccc([C@@H]3c4[nH]c5ccccc5c4C[C@@H](C)N3CC(F)F)nc2)C(C)(C)C)cc1` [Example 26, (2S,4R)-1-((S)-2-(2-(3-(2-((6-((1S,3R)-2-(2,2-Difluoroethyl)-3-methyl-2,3,4,9-tetrahydro-1H-pyrido[3,4-b]indol-1-yl)pyridin-3-yl)oxy)ethoxy)propoxy)acetamido)-3,3-dimethylbutanoyl)-4-hydroxy-N-(4-(4-methylthiazol-5-yl)benzyl)pyrrolidine-2-carboxamide], the pIC50 falls from 8.26 to 7.60 (0.66 log units). The first is the more potent here.

`Cc1ncsc1-c1ccc(CNC(=O)[C@@H]2C[C@@H](O)CN2C(=O)[C@@H](NC(=O)COc2cccc(COc3cc(F)c([C@@H]4c5[nH]c6ccccc6c5C[C@@H](C)N4CC(C)(C)F)c(F)c3)c2)C(C)(C)C)cc1` [Example 20, (2S,4R)-1-((S)-2-(2-(3-((3,5-difluoro-4-((1R,3R)-2-(2-fluoro-2-methylpropyl)-3-methyl-2,3,4,9-tetrahydro-1H-pyrido[3,4-b]indol-1-yl)phenoxy)methyl)phenoxy)acetamido)-3,3-dimethylbutanoyl)-4-hydroxy-N-(4-(4-methylthiazol-5-yl)benzyl)pyrrolidine-2-carboxamide] and `Cc1ncsc1-c1ccc(CNC(=O)[C@@H]2C[C@@H](O)CN2C(=O)[C@@H](NC(=O)COCC/C=C/CCOc2cc(F)c([C@@H]3c4[nH]c5ccccc5c4C[C@@H](C)N3CC(C)(C)F)c(F)c2)C(C)(C)C)cc1` [Example 22, (2S,4R)-1-((S)-2-(2-(((E)-6-(3,5-Difluoro-4-((1R,3R)-2-(2-fluoro-2-methylpropyl)-3-methyl-2,3,4,9-tetrahydro-1H-pyrido[3,4-b]indol-1-yl)phenoxy)hex-3-en-1-yl)oxy)acetamido)-3,3-dimethylbutanoyl)-4-hydroxy-N-(4-(4-methylthiazol-5-yl)benzyl)pyrrolidine-2-carboxamide] are within 0.2 log units of each other in pIC50: 9.00 for the first, 9.15 for the second.

`Cc1ncsc1-c1ccc(CNC(=O)[C@@H]2C[C@@H](O)CN2C(=O)[C@@H](NC(=O)COCCC(C)(C)CCOc2cc(F)c([C@@H]3c4[nH]c5ccccc5c4C[C@@H](C)N3CC(C)(C)F)c(F)c2)C(C)(C)C)cc1` [Example 23, (2S,4R)-1-((S)-2-(2-((5-(3,5-Difluoro-4-((1R,3R)-2-(2-fluoro-2-methylpropyl)-3-methyl-2,3,4,9-tetrahydro-1H-pyrido[3,4-b]indol-1-yl)phenoxy)-3,3-dimethylpentyl)oxy)acetamido)-3,3-dimethylbutanoyl)-4-hydroxy-N-(4-(4-methylthiazol-5-yl)benzyl)pyrrolidine-2-carboxamide] and `Cc1ncsc1-c1ccc([C@H](C)NC(=O)[C@@H]2C[C@@H](O)CN2C(=O)[C@@H](NC(=O)COCCCCCOc2cc(F)c([C@@H]3c4[nH]c5ccccc5c4C[C@@H](C)N3CC(C)(C)F)c(F)c2)C(C)(C)C)cc1` [Example 28, (2S,4R)-1-((S)-2-(2-((5-(3,5-Difluoro-4-((1R,3R)-2-(2-fluoro-2-methylpropyl)-3-methyl-2,3,4,9-tetrahydro-1H-pyrido[3,4-b]indol-1-yl)phenoxy)pentyl)oxy)acetamido)-3,3-dimethylbutanoyl)-4-hydroxy-N—((S)-1-(4-(4-methylthiazol-5-yl)phenyl)ethyl)pyrrolidine-2-carboxamide] are within 0.2 log units of each other in pIC50: 8.96 for the first, 9.10 for the second.

Compared with `COC(=O)[C@@H](C)CN1[C@H](c2c(F)cc(OCCOCCOCCOCC(=O)N[C@H](C(=O)N3C[C@H](O)C[C@H]3C(=O)NCc3ccc(-c4scnc4C)cc3)C(C)(C)C)cc2F)c2[nH]c3ccccc3c2C[C@H]1C` [Example 29], `CC(=O)O[C@@H]1C[C@@H](C(=O)NCc2ccc(-c3scnc3C)cc2)N(C(=O)[C@@H](NC(=O)COCCOCCOCCOc2cc(F)c([C@@H]3c4[nH]c5ccccc5c4C[C@@H](C)N3CC(C)(C)F)c(F)c2)C(C)(C)C)C1` [Example 34, (3R,5S)-1-((S)-2-(tert-Butyl)-14-(3,5-difluoro-4-((1R,3R)-2-(2-fluoro-2-methylpropyl)-3-methyl-2,3,4,9-tetrahydro-1H-pyrido[3,4-b]indol-1-yl)phenoxy)-4-oxo-6,9,12-trioxa-3-azatetradecanoyl)-5-((4-(4-methylthiazol-5-yl)benzyl)carbamoyl)pyrrolidin-3-yl Acetate] is 0.82 log units higher in pIC50: 8.23 for the first, 9.05 for the second.

First: Cc1ncsc1-c1ccc(CNC(=O)[C@@H]2C[C@@H](O)CN2C(=O)[C@@H](NC(=O)CCCCCCCCCCOc2cc(F)c([C@@H]3c4[nH]c5ccccc5c4C[C@@H](C)N3CC(C)(C)F)c(F)c2)C(C)(C)C)cc1 [Example 32, (2S,4R)-1-((S)-2-(11-(3,5-Difluoro-4-((1R,3R)-2-(2-fluoro-2-methylpropyl)-3-methyl-2,3,4,9-tetrahydro-1H-pyrido[3,4-b]indol-1-yl)phenoxy)undecanamido)-3,3-dimethylbutanoyl)-4-hydroxy-N-(4-(4-methylthiazol-5-yl)benzyl)pyrrolidine-2-carboxamide]
Second: Cc1ncsc1-c1ccc(CNC(=O)[C@@H]2C[C@@H](OC(=O)[C@@H]3CCCN3)CN2C(=O)[C@@H](NC(=O)CCCCCCCCCCOc2cc(F)c([C@@H]3c4[nH]c5ccccc5c4C[C@@H](C)N3CC(C)(C)F)c(F)c2)C(C)(C)C)cc1 [Example 33, (3R,5S)-1-((S)-2-(11-(3,5-Difluoro-4-((1R,3R)-2-(2-fluoro-2-methylpropyl)-3-methyl-2,3,4,9-tetrahydro-1H-pyrido[3,4-b]indol-1-yl)phenoxy)undecanamido)-3,3-dimethylbutanoyl)-5-((4-(4-methylthiazol-5-yl)benzyl)carbamoyl)pyrrolidin-3-yl L-prolinate]
The pIC50 of the first is 0.59 log units higher: 8.64 for the first, 8.05 for the second. The first is the more potent here.

Reference: US10519152B2, “Compounds and their use in treating cancer” (AstraZeneca AB, priority 2017, dated 2019)
